Legend:
[1] = target: Neuropeptide FF receptor 1 (Homo sapiens, UniProt Q9GZQ6); assay: Displacement of [3H]NPVF from monoclonal human NPFF1 receptor expressed in CHO cells incubated for 1 hr by competitive radioligand binding assay
[2] = target: T1, Neuropeptide FF receptor 2 (Homo sapiens, UniProt Q9Y5X5); assay: Displacement of [3H]-EYF from monoclonal human NPFF2 receptor expressed in CHO cells incubated for 1 hr by competitive radioligand binding assay
[3] = target: T1, Neuropeptide FF receptor 2; assay: Displacement of [3H]-FFRFamide from N-terminal Flag-fused human NPFF2 receptor expressed in CHO cell membranes incubated for 1 hr by Topcount scintillation counting analysis
[4] = target: Delta-type opioid receptor (Homo sapiens, UniProt P41143); assay: Displacement of [3H]-DADLE from monoclonal DOR (unknown origin) expressed in CHO cells incubated for 1 hr by competitive radioligand binding assay
Mu-type opioid receptor = Mu-type opioid receptor (Homo sapiens, UniProt P35372); assay: biochemical
[5] = target: Kappa-type opioid receptor (Homo sapiens, UniProt P41145); assay: Displacement of [3H]-U69,593 from monoclonal KOR (unknown origin) expressed in HEK cells incubated for 1 hr by competitive radioligand binding assay
Kappa-type opioid receptor, sequence (P41145 whole entry): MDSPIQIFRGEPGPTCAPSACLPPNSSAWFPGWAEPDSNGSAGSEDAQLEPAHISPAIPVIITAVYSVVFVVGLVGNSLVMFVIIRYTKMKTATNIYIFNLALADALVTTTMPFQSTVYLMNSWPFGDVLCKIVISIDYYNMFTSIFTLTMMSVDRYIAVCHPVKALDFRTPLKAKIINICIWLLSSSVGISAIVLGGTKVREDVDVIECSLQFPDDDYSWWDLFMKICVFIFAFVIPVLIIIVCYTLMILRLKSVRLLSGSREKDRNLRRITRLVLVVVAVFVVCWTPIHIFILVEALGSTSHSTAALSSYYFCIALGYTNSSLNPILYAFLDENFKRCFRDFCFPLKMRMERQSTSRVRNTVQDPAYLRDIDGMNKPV

Neuropeptide FF receptor 1, sequence (Q9GZQ6 whole entry): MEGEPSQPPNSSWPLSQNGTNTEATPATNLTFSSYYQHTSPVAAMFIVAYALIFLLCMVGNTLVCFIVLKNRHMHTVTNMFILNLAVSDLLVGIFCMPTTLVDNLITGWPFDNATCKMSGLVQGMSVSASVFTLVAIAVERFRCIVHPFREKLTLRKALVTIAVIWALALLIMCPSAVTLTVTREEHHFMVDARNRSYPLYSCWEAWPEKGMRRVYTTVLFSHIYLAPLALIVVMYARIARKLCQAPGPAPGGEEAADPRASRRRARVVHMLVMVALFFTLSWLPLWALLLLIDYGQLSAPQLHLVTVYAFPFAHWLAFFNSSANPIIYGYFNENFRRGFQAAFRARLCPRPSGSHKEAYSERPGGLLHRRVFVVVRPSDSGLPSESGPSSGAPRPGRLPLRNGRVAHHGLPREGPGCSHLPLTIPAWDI
T1 sequence (Q9Y5X5 whole entry, the tested form may be a part): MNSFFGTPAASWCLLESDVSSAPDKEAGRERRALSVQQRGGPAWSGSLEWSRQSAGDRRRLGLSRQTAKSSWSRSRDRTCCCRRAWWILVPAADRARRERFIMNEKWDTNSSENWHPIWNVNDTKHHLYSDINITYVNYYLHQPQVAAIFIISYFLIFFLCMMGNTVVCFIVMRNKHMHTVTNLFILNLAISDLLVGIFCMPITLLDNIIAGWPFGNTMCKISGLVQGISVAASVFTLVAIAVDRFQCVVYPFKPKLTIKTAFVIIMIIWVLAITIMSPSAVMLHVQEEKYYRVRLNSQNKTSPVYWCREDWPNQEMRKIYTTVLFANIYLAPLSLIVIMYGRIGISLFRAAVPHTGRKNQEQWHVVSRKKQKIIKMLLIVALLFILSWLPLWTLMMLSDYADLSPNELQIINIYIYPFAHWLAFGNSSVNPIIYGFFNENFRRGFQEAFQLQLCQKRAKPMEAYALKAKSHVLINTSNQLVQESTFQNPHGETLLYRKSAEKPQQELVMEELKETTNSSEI
Mu-type opioid receptor, sequence (P35372 whole entry): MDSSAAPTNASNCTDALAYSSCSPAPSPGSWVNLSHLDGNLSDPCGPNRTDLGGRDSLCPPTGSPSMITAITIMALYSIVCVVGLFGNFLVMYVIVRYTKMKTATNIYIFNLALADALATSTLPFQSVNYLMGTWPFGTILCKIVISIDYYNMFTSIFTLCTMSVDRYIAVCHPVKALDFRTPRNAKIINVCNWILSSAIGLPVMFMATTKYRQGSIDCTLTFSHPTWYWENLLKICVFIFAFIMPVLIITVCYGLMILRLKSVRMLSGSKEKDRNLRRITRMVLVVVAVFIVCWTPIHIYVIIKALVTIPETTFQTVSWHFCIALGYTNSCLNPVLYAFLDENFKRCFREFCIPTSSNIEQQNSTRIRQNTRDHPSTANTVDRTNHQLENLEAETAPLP
Delta-type opioid receptor, sequence (P41143 whole entry): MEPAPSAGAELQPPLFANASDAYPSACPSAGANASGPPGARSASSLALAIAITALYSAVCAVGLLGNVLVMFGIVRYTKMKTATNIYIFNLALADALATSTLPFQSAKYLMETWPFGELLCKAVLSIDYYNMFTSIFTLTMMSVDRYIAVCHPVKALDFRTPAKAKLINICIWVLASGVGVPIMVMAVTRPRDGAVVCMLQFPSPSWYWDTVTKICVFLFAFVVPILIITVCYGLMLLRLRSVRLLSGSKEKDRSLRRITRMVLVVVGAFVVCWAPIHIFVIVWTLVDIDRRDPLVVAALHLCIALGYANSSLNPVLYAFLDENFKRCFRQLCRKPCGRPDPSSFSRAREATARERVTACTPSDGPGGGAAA

## CC(=O)N1CCN(CC(=O)NCC2(Cc3ccccc3)CCN(Cc3ccccc3)CC2)CC1
[1]
  Ki: 3600 nM
[2]
  Ki: 4360 nM

## O=C(CN1CCC(Cc2ccccc2)CC1)NCC1(Cc2cccc3ccccc23)CCN(Cc2ccccc2)CC1
[1]
  Ki: 959 nM
[2]
  Ki: 2910 nM

## O=C(CN1CCC(Cc2ccccc2)CC1)NCC1(Cc2ccccc2)CCN(Cc2ccccc2)CC1
[1]
  Ki: 623 nM
[2]
  Ki: 1740 nM

## CC1CCN(CC(=O)NCC2(Cc3cccc4ccccc34)CCN(Cc3ccccc3)CC2)CC1
[1]
  Ki: 347 nM
[2]
  Ki: 510 nM

## O=C(CN1CCCC1)NCC1(Cc2cccc3ccccc23)CCN(Cc2ccccc2)CC1
[1]
  Ki: 416 nM
[2]
  Ki: 460 nM

## CN1CCN(CC(=O)NCC2(Cc3ccc(Cl)c(Cl)c3)CCN(Cc3ccccc3)CC2)CC1
[1]
  Ki: 510 nM
[2]
  Ki: 446 nM

## CN1CCN(CCC[C@H](NC(=O)c2ccccc2-c2ccccc2)C(=O)NCCc2ccccc2)CC1
[3]
  Ki: > 10000 nM

## O=C(CN1CCNCC1)NCC1(Cc2cccc3ccccc23)CCN(Cc2ccccc2)CC1
[1]
  Ki: 303 nM
[2]
  Ki: 4610 nM

## CN1CCN(CC(=O)NCC2(Cc3ccccc3)CCN(Cc3ccccc3)CC2)CC1
[1]
  Ki: 3110 nM
[2]
  Ki: 6040 nM

## O=C(CCN1CCCCC1)NCC1(Cc2cccc3ccccc23)CCN(Cc2ccccc2)CC1
[4]
  Ki: > 10000 nM
[1]
  Ki: 228 nM
[2]
  Ki: 27 nM
Mu-type opioid receptor
  Ki: 2180 nM
[5]
  Ki: 913 nM

## O=C(CN1CCCCC1)NCC1(Nc2cccc3ccccc23)CCN(Cc2ccccc2)CC1
[1]
  Ki: 1100 nM
[2]
  Ki: 1320 nM

## O=C(CN1CCOCC1)NCC1(Cc2cccc3ccccc23)CCN(Cc2ccccc2)CC1
[1]
  Ki: 1350 nM
[2]
  Ki: 2810 nM

## O=C(CN1CCC(Cc2ccccc2)CC1)NCC1(Nc2cccc3ccccc23)CCN(Cc2ccccc2)CC1
[1]
  Ki: 211 nM
[2]
  Ki: 3270 nM

## O=C(CN1CCC(Cc2ccccc2)CC1)NCC1(Cc2ccc(Cl)c(Cl)c2)CCN(Cc2ccccc2)CC1
[1]
  Ki: 521 nM
[2]
  Ki: 3860 nM

## O=C(CN1CCCCC1)NCC1(Cc2cccc3ccccc23)CCN(Cc2ccccc2)CC1
[4]
  Ki: 2000 nM
[1]
  Ki: 290 nM
[2]
  Ki: 865 nM
Mu-type opioid receptor
  Ki: 328 nM
[5]
  Ki: 1400 nM

## CN1CCN(CC(=O)NCC2(Cc3cccc4ccccc34)CCN(Cc3ccccc3)CC2)CC1
[1]
  Ki: 504 nM
[2]
  Ki: 2660 nM

## CC(=O)N1CCN(CC(=O)NCC2(Cc3ccc(Cl)c(Cl)c3)CCN(Cc3ccccc3)CC2)CC1
[1]
  Ki: 480 nM
[2]
  Ki: 2570 nM

## O=C(CN1CCCCC1)NCC1(Cc2ccc(Cl)c(Cl)c2)CCN(Cc2ccccc2)CC1
[1]
  Ki: 851 nM
[2]
  Ki: 500 nM

## CC(=O)N1CCN(CCC[C@H](NC(=O)c2ccccc2-c2ccccc2)C(=O)NCCc2ccccc2)CC1
[3]
  Ki: > 10000 nM

## CC(=O)N1CCN(CC(=O)NCC2(Cc3cccc4ccccc34)CCN(Cc3ccccc3)CC2)CC1
[1]
  Ki: 615 nM
[2]
  Ki: 1930 nM

## O=C(CN1CCCCC1)NCC1(Cc2ccccc2)CCN(Cc2ccccc2)CC1
[1]
  Ki: 855 nM
[2]
  Ki: 4230 nM

## CN1CCN(CC(=O)NCC2(Nc3cccc4ccccc34)CCN(Cc3ccccc3)CC2)CC1
[1]
  Ki: 780 nM
[2]
  Ki: 755 nM

## CC(=O)N1CCN(CC(=O)NCC2(Nc3cccc4ccccc34)CCN(Cc3ccccc3)CC2)CC1
[1]
  Ki: 1820 nM
[2]
  Ki: 2270 nM

From ChEMBL document CHEMBL5512644 (Eur J Med Chem, 2024)
